Measurements taken from BindingDB's records for doi:10.1021/acschembio.6b01129 (Promega Biosciences LLC, 2017).
Structures can show the parent of a compound that is named as a salt.

Biological target: Oplophorus-luciferin 2-monooxygenase catalytic subunit (Oplophorus gracilirostris, UniProt Q9GV45)
Assay: NanoLuc Inhibition Assay
Procedure: NanoLuc enzyme was diluted to 0.4 ng/mL in CO2 independent media + 10% FBS to make the detection reagent. A 3× dilution series of each inhibitor was then made in the detection reagent. A "no inhibitor" control was also made for each sample. A total of 50 μL of each inhibitor dilution was mixed with 50 μL of NanoGlo buffer containing 20 μM furimazine (final furimazine concentration is 10 μM, which is atKM), and luminescence was measured. Each sample was normalized to the "no inhibitor" control.

Oplophorus-luciferin 2-monooxygenase catalytic subunit, sequence (Q9GV45 whole entry): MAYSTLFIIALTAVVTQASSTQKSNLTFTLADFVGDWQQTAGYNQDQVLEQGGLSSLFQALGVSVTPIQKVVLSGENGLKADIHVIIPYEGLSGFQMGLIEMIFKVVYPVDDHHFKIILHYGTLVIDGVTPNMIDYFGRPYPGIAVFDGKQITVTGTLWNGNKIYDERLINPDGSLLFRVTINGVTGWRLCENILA

Compound	IC50 [nM]
CCN(C(=O)Cn1c(C(=O)Nc2cccc(C(=O)OC)c2)cc2sccc21)c1cccc(C)c1 [Methyl 3-(4-(2-(ethyl(m-tolyl)amino)-2-oxoethyl)-4H-thieno[3,2-b]pyrrole-5carboxamido)benzoate (11)]	10700
CCN(C(=O)Cn1c(C(=O)NC2CCC(C(=O)NCCO)CC2)cc2sccc21)c1cccc(C)c1 (stereo not drawn) [4-(2-(Ethyl(m-tolyl)amino)-2-oxoethyl)-N-(trans-4-((2-hydroxyethyl)carbamoyl)cyclohexyl)-4Hthieno[3,2-b]pyrrole-5-carboxamide (35)]	830
CCN(C(=O)Cn1c(C(=O)N[C@H]2CC[C@H](C(=O)OC)CC2)cc2sccc21)c1ccccc1C [Methyl trans-4-(4-(2-(ethyl(o-tolyl)amino)-2-oxoethyl)-4H-thieno[3,2-b]pyrrole-5carboxamido)cyclohexane-1-carboxylate (19)]	690
CCOC(=O)Cc1ccc(NC(=O)c2cc3sccc3n2CC(=O)N(CC)c2cccc(C)c2)cc1 [Ethyl 2-(4-(4-(2-(ethyl(m-tolyl)amino)-2-oxoethyl)-4H-thieno[3,2-b]pyrrole-5carboxamido)phenyl)acetate (12)]	4700
CCN(C(=O)Cn1c(C(=O)N[C@H]2CC[C@H](C(=O)NCCCCCCNC(=O)c3ccc4c(c3)C3(OC4)c4ccc(O)cc4Oc4cc(O)ccc43)CC2)cc2sccc21)c1cccc(C)c1 [N-(trans-4-((6-(3',6'-dihydroxy-3-oxo-3H-spiro[isobenzofuran-1,9'-xanthene]-5(6)carboxamido)hexyl)carbamoyl)cyclohexyl)-4-(2-(ethyl(m-tolyl)amino)-2-oxoethyl)-4Hthieno[3,2-b]pyrrole-5-carboxamide (47)]	49
COC(=O)[C@H]1CC[C@H](NC(=O)c2cc3sccc3n2CC(=O)N2CCCc3cc(C)ccc32)CC1 [Methyl trans-4-(4-(2-(6-methyl-3,4-dihydroquinolin-1(2H)-yl)-2-oxoethyl)-4Hthieno[3,2-b]pyrrole-5-carboxamido)cyclohexane-1-carboxylate (21)]	20200
CCN(C(=O)Cn1c(C(=O)N2CCCCC2)cc2sccc21)c1cccc(C)c1 [N-ethyl-2-(5-(piperidine-1-carbonyl)-4H-thieno[3,2-b]pyrrol-4-yl)-N-(m-tolyl)acetamide (7)]	2600
CCN(C(=O)Cn1c(C(=O)N[C@H]2CC[C@H](C(=O)OC)CC2)cc2occc21)c1cccc(C)c1 [Methyl trans-4-(4-(2-(ethyl(m-tolyl)amino)-2-oxoethyl)-4H-furo[3,2-b]pyrrole-5carboxamido)cyclohexane-1-carboxylate (31)]	590
CCCCNC(=O)C1CCC(NC(=O)c2cc3sccc3n2CC(=O)N(CC)c2cccc(C)c2)CC1 (stereo not drawn) [N-(trans-4-(butylcarbamoyl)cyclohexyl)-4-(2-(ethyl(m-tolyl)amino)-2-oxoethyl)-4H-thieno[3,2b]pyrrole-5-carboxamide (34)]	300
CCN(C(=O)Cn1c(C(=O)N[C@H]2CC[C@H](C(=O)OC)CC2)cc2ccc(OC)cc21)c1cccc(C)c1 [Methyl trans-4-(1-(2-(ethyl(m-tolyl)amino)-2-oxoethyl)-6-methoxy-1H-indole-2carboxamido)cyclohexane-1-carboxylate (30)]	3400
CCN(C(=O)Cn1c(C(=O)NC2CCC(C(=O)NCCCC(=O)O)CC2)cc2sccc21)c1cccc(C)c1 (trans isomer) [4-(trans-4-(4-(2-(Ethyl(m-tolyl)amino)-2-oxoethyl)-4H-thieno[3,2-b]pyrrole-5carboxamido)cyclohexane-1-carboxamido)butanoic acid (37)]	890
CCN(C(=O)Cn1c(C(=O)N[C@H]2CC[C@H](C(=O)NCCCCCCNC(=O)[C@H](CC(=O)O)NC(=O)[C@H](CC(=O)O)NC(=O)[C@H](CC(=O)O)NC(C)=O)CC2)cc2sccc21)c1cccc(C)c1 [(11S,14S,17S)-17-Acetamido-11,14-bis(carboxymethyl)-1-(trans-4-(4-(2-(ethyl(m-tolyl)amino)2-oxoethyl)-4H-thieno[3,2-b]pyrrole-5-carboxamido)cyclohexyl)-1,10,13,16-tetraoxo-2,9,12,15tetraazanonadecan-19-oic acid (46)]	66
CCN(C(=O)Cn1c(C(=O)N2CCCC2)cc2sccc21)c1cccc(C)c1 [N-ethyl-2-(5-(pyrrolidine-1-carbonyl)-4H-thieno[3,2-b]pyrrol-4-yl)-N-(m-tolyl)acetamide (6)]	1200
CCN(C(=O)Cn1cccc1C(=O)N[C@H]1CC[C@H](C(=O)OC)CC1)c1cccc(C)c1 [Methyl trans-4-(1-(2-(ethyl(m-tolyl)amino)-2-oxoethyl)-1H-pyrrole-2carboxamido)cyclohexane-1-carboxylate (28)]	7700
CCN(C(=O)Cn1c(C(=O)N[C@H]2CC[C@H](C(=O)OC)CC2)cc2sccc21)c1cccc(C(N)=O)c1 [Methyl trans-4-(4-(2-((3-carbamoylphenyl)(ethyl)amino)-2-oxoethyl)-4H-thieno[3,2-b]pyrrole5-carboxamido)cyclohexane-1-carboxylate (27)]	240
CCN(C(=O)Cn1c(C(=O)NC2CCC(C(=O)NCCN(C)C)CC2)cc2sccc21)c1cccc(C)c1 (trans isomer) [N-(trans-4-((2-(dimethylamino)ethyl)carbamoyl)cyclohexyl)-4-(2-(ethyl(m-tolyl)amino)-2oxoethyl)-4H-thieno[3,2-b]pyrrole-5-carboxamide (36)]	17800
COCCOCCN(C(=O)Cn1c(C(=O)NC2CCCCC2)cc2sccc21)c1cccc(C)c1 [N-cyclohexyl-4-(2-((2-(2-methoxyethoxy)ethyl)(m-tolyl)amino)-2-oxoethyl)-4H-thieno[3,2b]pyrrole-5-carboxamide (14)]	16500
CCCCCCN(C(=O)Cn1c(C(=O)NC2CCCCC2)cc2sccc21)c1cccc(C)c1 [N-cyclohexyl-4-(2-(hexyl(m-tolyl)amino)-2-oxoethyl)-4H-thieno[3,2-b]pyrrole-5-carboxamide (16)]	5600
Cc1cccc(NC(=O)Cn2c(C(=O)NC3CCCCC3)cc3sccc32)c1 [N-cyclohexyl-4-(2-oxo-2-(m-tolylamino)ethyl)-4H-thieno[3,2-b]pyrrole-5-carboxamide (13)]	45200

Further compounds by falling IC50, results first:

IC50 [nM]	Compound
230	CCN(C(=O)Cn1c(C(=O)N[C@H]2CC[C@@H](C(=O)OC)CC2)cc2sccc21)c1cccc(C)c1 [Methyl-cis-4-(4-(2-(ethyl(m-tolyl)amino)-2-oxoethyl)-4H-thieno[3,2-b]pyrrole-5carboxamido)cyclohexane-1-carboxylate (9)]
160	CCCCCCNC(=O)C1CCC(NC(=O)c2cc3sccc3n2CC(=O)N(CC)c2cccc(C)c2)CC1 (trans isomer) [4-(2-(Ethyl(m-tolyl)amino)-2-oxoethyl)-N-(trans-4-(hexylcarbamoyl)cyclohexyl)-4H-thieno[3,2b]pyrrole-5-carboxamide (38)]
150	CCN(C(=O)Cn1c(C(=O)N[C@H]2CC[C@H](C(=O)OC)CC2)cc2sccc21)c1cccc(C)c1 [trans-Methyl-4-(4-(2-(ethyl(m-tolyl)amino)-2-oxoethyl)-4H-thieno[3,2-b]pyrrole-5carboxamido)cyclohexane-1-carboxylate (8)]
130	CCN(C(=O)Cn1c(C(=O)N[C@H]2CC[C@H](C(=O)OC)CC2)cc2sccc21)c1cccc(C(C)C)c1 (mixture of isomers) [Methyl trans-4-(4-(2-(ethyl(3-isopropylphenyl)amino)-2-oxoethyl)-4H-thieno[3,2-b]pyrrole-5carboxamido)cyclohexane-1-carboxylate (23)]
94	CCN(C(=O)Cn1c(C(=O)NC2CCC(C(=O)NCCCCCC(=O)O)CC2)cc2sccc21)c1cccc(C)c1 (stereo not drawn) [6-(trans-4-(4-(2-(Ethyl(m-tolyl)amino)-2-oxoethyl)-4H-thieno[3,2-b]pyrrole-5carboxamido)cyclohexane-1-carboxamido)hexanoic acid (41)]
71	CCN(C(=O)Cn1c(C(=O)NC2CCC(C(=O)NCCCCCCS(=O)(=O)O)CC2)cc2sccc21)c1cccc(C)c1 (trans isomer) [Sodium 6-(trans-4-(4-(2-(ethyl(m-tolyl)amino)-2-oxoethyl)-4H-thieno[3,2-b]pyrrole-5carboxamido)cyclohexane-1-carboxamido)hexane-1-sulfonate (43)]
63	CCN(C(=O)Cn1c(C(=O)NC2CCC(C(=O)NCCCCCCN)CC2)cc2sccc21)c1cccc(C)c1 (stereo not drawn) [N-(trans-4-((6-aminohexyl)carbamoyl)cyclohexyl)-4-(2-(ethyl(m-tolyl)amino)-2-oxoethyl)-4Hthieno[3,2-b]pyrrole-5-carboxamide hydrochloride (40)]
36	CCN(C(=O)Cn1c(C(=O)N[C@H]2CC[C@H](C(=O)OC)CC2)cc2ccccc21)c1cccc(C)c1 [Methyl trans-4-(1-(2-(ethyl(m-tolyl)amino)-2-oxoethyl)-1H-indole-2-carboxamido)cyclohexane1-carboxylate (29)]
31	CCN(C(=O)Cn1c(C(=O)NC2CCC(C(=O)NCCCCCCCC(=O)O)CC2)cc2sccc21)c1cccc(C)c1 (stereo not drawn) [8-(trans-4-(4-(2-(Ethyl(m-tolyl)amino)-2-oxoethyl)-4H-thieno[3,2-b]pyrrole-5carboxamido)cyclohexane-1-carboxamido)octanoic acid (42)]
30	CCN(C(=O)Cn1c(C(=O)NC2CCC(C(=O)NCCCCCCO)CC2)cc2sccc21)c1cccc(C)c1 (stereo not drawn) [4-(2-(Ethyl(m-tolyl)amino)-2-oxoethyl)-N-(trans-4-((6-hydroxyhexyl)carbamoyl)cyclohexyl)4H-thieno[3,2-b]pyrrole-5-carboxamide (39)]
5.4	CCc1cccc(N(CC)C(=O)Cn2c(C(=O)N[C@H]3CC[C@H](C(=O)OC)CC3)cc3ccccc32)c1 [Methyl trans-4-(1-(2-(ethyl(3-ethylphenyl)amino)-2-oxoethyl)-1H-indole-2carboxamido)cyclohexane-1-carboxylate (33)]
